Legend:
NEK2 = biological target: T1, NEK2 (Homo sapiens, UniProt P51955); test: Millipore KinaseProfiler; type: biochemical; details: read-out: % of control
T1 construct: purchased Millipore (KinaseProfiler service)
From the text: (§1) Supplement oncotarget-01-339-s001.doc, table 1: Supplementary Table 1. Millipore KinaseProfiler excerpt | column: % of control

ACK1 = biological target: T2, ACK1 (Homo sapiens, UniProt Q07912); test: Millipore KinaseProfiler; type: biochemical; details: read-out: % of control
T2 construct: purchased Millipore (KinaseProfiler service)
From the text: as §1

Src(1-530) = biological target: T3, Src(1-530) (Homo sapiens, UniProt P12931); test: Millipore KinaseProfiler; type: biochemical; details: read-out: % of control
T3 construct: Src(1-530); purchased Millipore (KinaseProfiler service)
From the text: as §1

LIMK1 = biological target: T4, LIMK1 (Homo sapiens, UniProt P53667); test: Millipore KinaseProfiler; type: biochemical; details: read-out: % of control
T4 construct: purchased Millipore (KinaseProfiler service)
From the text: as §1

PKCθ = biological target: T5, PKCθ (Homo sapiens, UniProt Q04759); test: Millipore KinaseProfiler; type: biochemical; details: read-out: % of control
T5 construct: purchased Millipore (KinaseProfiler service)
From the text: as §1

TrkA = biological target: T6, TrkA (Homo sapiens, UniProt P04629); test: Millipore KinaseProfiler; type: biochemical; details: read-out: % of control
T6 construct: purchased Millipore (KinaseProfiler service)
From the text: as §1

EphB1 = biological target: T7, EphB1 (Homo sapiens, UniProt P54762); test: Millipore KinaseProfiler; type: biochemical; details: read-out: % of control
T7 construct: purchased Millipore (KinaseProfiler service)
From the text: as §1

cSRC = biological target: T8, cSRC (Homo sapiens, UniProt P12931); test: Millipore KinaseProfiler; type: biochemical; details: read-out: % of control
T8 construct: purchased Millipore (KinaseProfiler service)
From the text: as §1

Yes = biological target: T9, Yes (Homo sapiens, UniProt P07947); test: Millipore KinaseProfiler; type: biochemical; details: read-out: % of control
T9 construct: purchased Millipore (KinaseProfiler service)
From the text: as §1

Flt3 = biological target: T10, Flt3 (Homo sapiens, UniProt P36888); test: Millipore KinaseProfiler; type: biochemical; details: read-out: % of control
T10 construct: purchased Millipore (KinaseProfiler service)
From the text: as §1

EGFR(T790M,L858R) = biological target: T11, EGFR(T790M,L858R) (Homo sapiens, UniProt P00533, L858R/T790M); test: Millipore KinaseProfiler; type: biochemical; details: read-out: % of control
T11 construct: purchased Millipore (KinaseProfiler service)
From the text: as §1

MELK = biological target: T12, MELK (Homo sapiens, UniProt Q14680); test: Millipore KinaseProfiler; type: biochemical; details: read-out: % of control
T12 construct: purchased Millipore (KinaseProfiler service)
From the text: as §1

IRAK1 = biological target: T13, IRAK1 (Homo sapiens, UniProt P51617); test: Millipore KinaseProfiler; type: biochemical; details: read-out: % of control
T13 construct: purchased Millipore (KinaseProfiler service)
From the text: as §1

CDK5/p35 = biological target: T14, CDK5/p35 (Homo sapiens, UniProt Q00535); test: Millipore KinaseProfiler; type: biochemical; details: read-out: % of control
T14 construct: purchased Millipore (KinaseProfiler service)
From the text: as §1

TBK1 = biological target: T15, TBK1 (Homo sapiens, UniProt Q9UHD2); test: Millipore KinaseProfiler; type: biochemical; details: read-out: % of control
T15 construct: purchased Millipore (KinaseProfiler service)
From the text: as §1

PTK5 = biological target: T16, PTK5 (Homo sapiens, UniProt P42685); test: Millipore KinaseProfiler; type: biochemical; details: read-out: % of control
T16 construct: purchased Millipore (KinaseProfiler service)
From the text: as §1

Flt3(D835Y) = biological target: T17, Flt3(D835Y) (Homo sapiens, UniProt P36888, D835Y); test: Millipore KinaseProfiler; type: biochemical; details: read-out: % of control
T17 construct: purchased Millipore (KinaseProfiler service)
From the text: as §1

Mer = biological target: T18, Mer (Homo sapiens, UniProt Q12866); test: Millipore KinaseProfiler; type: biochemical; details: read-out: % of control
T18 construct: purchased Millipore (KinaseProfiler service)
From the text: as §1

Ret = biological target: T19, Ret (Homo sapiens, UniProt P07949); test: Millipore KinaseProfiler; type: biochemical; details: read-out: % of control
T19 construct: purchased Millipore (KinaseProfiler service)
From the text: as §1

Haspin = biological target: T20, Haspin (Homo sapiens, UniProt Q8TF76); test: Millipore KinaseProfiler; type: biochemical; details: read-out: % of control
T20 construct: purchased Millipore (KinaseProfiler service)
From the text: as §1

IRAK4 = biological target: T21, IRAK4 (Homo sapiens, UniProt Q9NWZ3); test: Millipore KinaseProfiler; type: biochemical; details: read-out: % of control
T21 construct: purchased Millipore (KinaseProfiler service)
From the text: as §1

CLK2 = biological target: T22, CLK2 (Homo sapiens, UniProt P49760); test: Millipore KinaseProfiler; type: biochemical; details: read-out: % of control
T22 construct: purchased Millipore (KinaseProfiler service)
From the text: as §1

p110γ = biological target: T23, p110γ (Homo sapiens, UniProt P48736); test: Biochemical PI3K inhibition assay, p110γ
T23 construct: His-tag; made in house; host or cells: Sf9 insect cells (baculovirus)
From the text: (§2) cDNA clones of PIK3CA, PIK3CB and PIK3CG were obtained from Origene (Rockville, MD, USA). PIK3CD was generously provided by Novartis Pharmaceuticals. The cDNA clones were sub-cloned into pFastBac His-Tag (Invitrogen, Carlsbad, CA, USA) and baculovirus clones were generated by the Bac-to-Bac expression system (Invitrogen). p110α, p110β and p110δ were co-expressed in Sf9 insect cells (Invitrogen) with a nSH2-iSH2 fragment of the regulatory subunit p85 comprising AA residues 322 to 600 [4]. p110γ was expressed without a regulatory subunit. Sf9 cells were lysed in a buffer containing 50 mM sodium phosphate, pH 8.0, 400 mM NaCl, 5% glycerol, 1% Triton X-100, 10 mM 2-mercaptoethanol, 1 mM orthovanadate, 10 mM imidazole, and sonicated on ice for 1 minute. Proteins were purified by adding Ni-NTA Superflow beads (Qiagen, Valencia, CA, USA) to the lysate and subsequent rolling for 30 min at 4°C. Beads were washed twice with 50 mM phosphate buffer, pH 8.0, 0.5 M NaCl, 50 mM Imidazole, 2 mM DTT and eluted in the same buffer but with 200 mM imidazole. Purified PI3K's were mixed 1:1 with glycerol and stored at -20°C.
(§3) J-series inhibitors were dissolved, serial diluted in DMSO and deposited into 96 well plates at a final DMSO concentration of 1%. We used a novel assay to determine their potency and selectivity. In brief, micelles of 2.5 μg L-a-Phosphatidylinositol and 2.5 μg 1,2-Diacyl-sn-glycero-3-phospho-L-serine were formed by sonication, mixed with the individual PI3K isoforms and added to the drug dilutions in a reaction buffer containing 10 mM HEPES, 25 mM NaCl, 0.125 μg/μl BSA, and 2 mM BME (final concentrations). Reactions were timed after the addition of 10 μM ATP with 40 μCi/ml γ-32P-ATP (PerkinElmer, Waltham, MA, USA) and 2 mM MgCl2 (all final concentrations). The reactions were terminated after two hours by the addition of 2 N HCl and the lipids extracted with 1:1 MetOH/Chloroform. Radio-labeled phosphatidyl-inositol-3-phosphate in the extracted organic fraction was quantified after the addition of Microscint O (PerkinElmer) using a TopCount 96 well plate scintillation counter (PerkinElmer). IC50 concentrations and inhibition curves were calculated using Prism 5 (GraphPad Software, La Jolla, CA).

p110δ = biological target: T24, p110δ (Homo sapiens, UniProt O00329); test: Biochemical PI3K inhibition assay, p110δ; details: 10 μM ATP, two hours
T24 construct: His-tag; made in house; host or cells: Sf9 insect cells (baculovirus)
From the text: as §2, §3

T23 sequence (P48736 whole entry): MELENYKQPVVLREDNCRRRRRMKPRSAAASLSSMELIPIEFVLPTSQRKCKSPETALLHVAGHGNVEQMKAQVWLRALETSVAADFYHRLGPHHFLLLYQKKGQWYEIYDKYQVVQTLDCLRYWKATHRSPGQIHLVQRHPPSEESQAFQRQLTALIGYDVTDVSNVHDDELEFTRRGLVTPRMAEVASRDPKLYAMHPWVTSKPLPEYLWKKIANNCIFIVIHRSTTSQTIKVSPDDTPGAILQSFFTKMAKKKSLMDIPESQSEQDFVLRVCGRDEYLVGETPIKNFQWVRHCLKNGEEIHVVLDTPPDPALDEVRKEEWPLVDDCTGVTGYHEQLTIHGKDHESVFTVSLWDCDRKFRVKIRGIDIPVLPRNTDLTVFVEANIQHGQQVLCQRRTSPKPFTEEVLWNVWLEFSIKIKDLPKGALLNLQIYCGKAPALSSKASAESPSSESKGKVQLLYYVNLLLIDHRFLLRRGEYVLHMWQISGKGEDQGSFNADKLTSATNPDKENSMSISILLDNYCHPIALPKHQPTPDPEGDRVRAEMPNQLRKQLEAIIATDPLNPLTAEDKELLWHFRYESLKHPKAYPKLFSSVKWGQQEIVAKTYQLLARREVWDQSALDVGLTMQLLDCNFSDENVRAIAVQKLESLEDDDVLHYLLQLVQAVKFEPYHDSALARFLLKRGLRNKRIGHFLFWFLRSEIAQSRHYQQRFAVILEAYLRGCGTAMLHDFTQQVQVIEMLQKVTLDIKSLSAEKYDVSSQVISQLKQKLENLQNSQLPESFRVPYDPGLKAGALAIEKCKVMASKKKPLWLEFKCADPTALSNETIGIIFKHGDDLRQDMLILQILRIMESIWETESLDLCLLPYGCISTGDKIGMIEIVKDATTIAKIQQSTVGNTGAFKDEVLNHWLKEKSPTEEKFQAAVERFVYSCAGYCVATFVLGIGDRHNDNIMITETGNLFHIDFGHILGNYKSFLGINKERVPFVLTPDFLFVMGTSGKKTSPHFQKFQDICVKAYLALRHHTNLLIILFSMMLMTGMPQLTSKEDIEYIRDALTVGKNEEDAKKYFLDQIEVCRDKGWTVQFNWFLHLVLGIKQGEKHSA
T15 sequence (Q9UHD2 whole entry): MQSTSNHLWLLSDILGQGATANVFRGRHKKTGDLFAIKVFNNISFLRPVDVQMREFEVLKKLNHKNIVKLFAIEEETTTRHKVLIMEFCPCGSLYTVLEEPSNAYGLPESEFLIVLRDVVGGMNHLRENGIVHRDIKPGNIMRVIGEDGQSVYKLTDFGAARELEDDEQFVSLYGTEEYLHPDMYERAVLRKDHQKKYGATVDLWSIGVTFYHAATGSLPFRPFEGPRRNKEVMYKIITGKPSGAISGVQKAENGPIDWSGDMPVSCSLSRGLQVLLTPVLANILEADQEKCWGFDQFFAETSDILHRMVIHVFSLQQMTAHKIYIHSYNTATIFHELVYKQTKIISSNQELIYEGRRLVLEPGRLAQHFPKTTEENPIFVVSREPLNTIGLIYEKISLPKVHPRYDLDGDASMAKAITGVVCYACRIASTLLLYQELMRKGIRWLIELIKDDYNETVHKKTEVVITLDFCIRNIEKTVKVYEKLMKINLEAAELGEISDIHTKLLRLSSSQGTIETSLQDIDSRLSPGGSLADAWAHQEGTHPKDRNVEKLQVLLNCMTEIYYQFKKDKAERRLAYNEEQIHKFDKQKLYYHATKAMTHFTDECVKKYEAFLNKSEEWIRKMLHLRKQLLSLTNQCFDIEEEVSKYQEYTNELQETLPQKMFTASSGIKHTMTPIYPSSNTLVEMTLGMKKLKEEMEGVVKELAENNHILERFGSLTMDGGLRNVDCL
T6 sequence (P04629 33-796): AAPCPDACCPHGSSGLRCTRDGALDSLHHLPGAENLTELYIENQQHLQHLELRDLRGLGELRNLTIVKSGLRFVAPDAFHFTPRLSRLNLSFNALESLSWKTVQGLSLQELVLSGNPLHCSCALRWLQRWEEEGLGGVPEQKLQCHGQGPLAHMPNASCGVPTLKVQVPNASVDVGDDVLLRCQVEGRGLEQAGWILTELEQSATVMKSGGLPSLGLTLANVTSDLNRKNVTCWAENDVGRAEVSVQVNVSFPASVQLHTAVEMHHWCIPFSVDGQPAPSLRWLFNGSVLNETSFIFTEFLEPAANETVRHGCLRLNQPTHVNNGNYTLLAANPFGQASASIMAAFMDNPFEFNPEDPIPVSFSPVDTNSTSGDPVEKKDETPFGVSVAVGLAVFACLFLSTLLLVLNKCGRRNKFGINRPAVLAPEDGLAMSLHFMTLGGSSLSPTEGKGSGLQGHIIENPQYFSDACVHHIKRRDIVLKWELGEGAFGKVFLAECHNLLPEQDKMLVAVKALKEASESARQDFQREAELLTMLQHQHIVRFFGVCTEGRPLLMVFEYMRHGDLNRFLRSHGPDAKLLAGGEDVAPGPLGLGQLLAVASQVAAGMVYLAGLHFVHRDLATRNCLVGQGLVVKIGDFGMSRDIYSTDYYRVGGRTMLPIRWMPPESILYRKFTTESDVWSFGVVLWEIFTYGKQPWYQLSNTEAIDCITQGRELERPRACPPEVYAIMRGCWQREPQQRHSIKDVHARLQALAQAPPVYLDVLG
T18 sequence (Q12866 21-999): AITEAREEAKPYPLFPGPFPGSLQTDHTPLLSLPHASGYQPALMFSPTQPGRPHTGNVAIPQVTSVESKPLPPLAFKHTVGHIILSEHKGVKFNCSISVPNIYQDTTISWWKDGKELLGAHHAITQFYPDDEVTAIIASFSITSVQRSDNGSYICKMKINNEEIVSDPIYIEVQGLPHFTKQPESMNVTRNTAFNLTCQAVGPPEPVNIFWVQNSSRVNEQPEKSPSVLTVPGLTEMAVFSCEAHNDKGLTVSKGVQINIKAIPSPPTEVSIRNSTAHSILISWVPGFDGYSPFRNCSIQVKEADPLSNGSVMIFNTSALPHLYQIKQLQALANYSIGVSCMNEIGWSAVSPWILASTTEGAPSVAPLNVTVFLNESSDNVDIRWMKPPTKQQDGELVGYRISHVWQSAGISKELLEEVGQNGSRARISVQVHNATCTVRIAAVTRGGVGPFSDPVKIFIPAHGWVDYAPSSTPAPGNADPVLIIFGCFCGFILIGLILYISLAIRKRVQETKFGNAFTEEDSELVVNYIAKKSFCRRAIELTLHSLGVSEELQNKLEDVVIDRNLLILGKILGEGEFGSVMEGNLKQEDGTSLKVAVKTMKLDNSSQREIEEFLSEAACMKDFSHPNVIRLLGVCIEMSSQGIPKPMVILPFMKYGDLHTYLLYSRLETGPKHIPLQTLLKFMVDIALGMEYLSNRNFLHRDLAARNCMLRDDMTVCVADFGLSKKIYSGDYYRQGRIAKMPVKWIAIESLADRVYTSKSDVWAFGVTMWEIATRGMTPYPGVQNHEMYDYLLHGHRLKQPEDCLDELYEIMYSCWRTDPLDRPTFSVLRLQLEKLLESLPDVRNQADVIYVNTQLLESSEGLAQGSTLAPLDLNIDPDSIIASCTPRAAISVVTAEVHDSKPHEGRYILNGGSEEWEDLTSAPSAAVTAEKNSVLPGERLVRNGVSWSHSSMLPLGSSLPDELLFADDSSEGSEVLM
T19 sequence (P07949 29-1114): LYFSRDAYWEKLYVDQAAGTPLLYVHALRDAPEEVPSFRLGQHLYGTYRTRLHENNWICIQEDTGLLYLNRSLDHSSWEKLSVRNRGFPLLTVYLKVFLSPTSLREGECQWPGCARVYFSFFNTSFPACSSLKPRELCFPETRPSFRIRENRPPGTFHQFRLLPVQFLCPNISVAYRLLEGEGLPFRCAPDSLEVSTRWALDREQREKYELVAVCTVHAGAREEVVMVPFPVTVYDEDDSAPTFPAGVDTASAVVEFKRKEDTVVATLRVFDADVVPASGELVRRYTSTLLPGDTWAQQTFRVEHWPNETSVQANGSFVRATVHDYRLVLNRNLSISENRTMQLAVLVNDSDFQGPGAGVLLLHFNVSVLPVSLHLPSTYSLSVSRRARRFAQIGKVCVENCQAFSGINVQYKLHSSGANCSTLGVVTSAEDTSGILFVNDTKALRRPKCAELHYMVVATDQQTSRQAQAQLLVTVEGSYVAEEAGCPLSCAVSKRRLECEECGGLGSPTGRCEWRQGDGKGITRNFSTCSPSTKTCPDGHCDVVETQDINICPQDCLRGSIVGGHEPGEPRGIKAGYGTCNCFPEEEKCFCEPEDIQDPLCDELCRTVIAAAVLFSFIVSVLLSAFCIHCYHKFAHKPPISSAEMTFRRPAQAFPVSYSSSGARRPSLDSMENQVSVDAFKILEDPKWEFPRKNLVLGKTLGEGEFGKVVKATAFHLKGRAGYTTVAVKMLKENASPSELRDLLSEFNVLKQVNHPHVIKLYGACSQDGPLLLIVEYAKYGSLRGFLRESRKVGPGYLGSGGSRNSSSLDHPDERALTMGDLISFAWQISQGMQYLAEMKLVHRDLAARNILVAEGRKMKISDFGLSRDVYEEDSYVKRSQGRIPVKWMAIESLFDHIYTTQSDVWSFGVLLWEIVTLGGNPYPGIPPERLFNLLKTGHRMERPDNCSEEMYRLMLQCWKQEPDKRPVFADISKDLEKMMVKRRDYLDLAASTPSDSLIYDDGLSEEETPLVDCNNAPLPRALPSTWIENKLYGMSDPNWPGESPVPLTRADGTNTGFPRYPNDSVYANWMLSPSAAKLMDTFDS
T1 sequence (P51955 whole entry): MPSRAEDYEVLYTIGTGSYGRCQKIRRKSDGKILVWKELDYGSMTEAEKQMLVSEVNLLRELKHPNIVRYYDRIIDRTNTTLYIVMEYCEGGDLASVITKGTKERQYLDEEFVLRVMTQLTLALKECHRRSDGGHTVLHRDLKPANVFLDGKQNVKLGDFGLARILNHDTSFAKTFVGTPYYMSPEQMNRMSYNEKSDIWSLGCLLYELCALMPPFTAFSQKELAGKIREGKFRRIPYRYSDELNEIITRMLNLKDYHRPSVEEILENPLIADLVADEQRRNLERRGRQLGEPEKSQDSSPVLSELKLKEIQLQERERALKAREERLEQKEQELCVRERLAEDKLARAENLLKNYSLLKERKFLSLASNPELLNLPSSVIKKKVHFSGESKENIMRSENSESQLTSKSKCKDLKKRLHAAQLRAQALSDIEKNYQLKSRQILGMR

remaining activity at 0.011 µM (NEK2): 42%
remaining activity at 0.011 µM (ACK1): 30%
remaining activity at 0.011 µM (Src(1-530)): 48%
remaining activity at 0.011 µM (LIMK1): 36%
remaining activity at 0.011 µM (PKCθ): 35%
remaining activity at 0.011 µM (TrkA): 11%
remaining activity at 0.011 µM (EphB1): 46%
remaining activity at 0.011 µM (cSRC): 48%
remaining activity at 0.011 µM (Yes): 40%
remaining activity at 0.011 µM (Flt3): 10%
remaining activity at 0.011 µM (EGFR(T790M,L858R)): 46%
remaining activity at 0.011 µM (MELK): 23%
remaining activity at 0.011 µM (IRAK1): 42%
remaining activity at 0.011 µM (CDK5/p35): 37%
remaining activity at 0.011 µM (TBK1): 46%
remaining activity at 0.011 µM (PTK5): 11%
remaining activity at 0.011 µM (Flt3(D835Y)): 3%
remaining activity at 0.011 µM (Mer): 33%
remaining activity at 0.011 µM (Ret): 49%
remaining activity at 0.011 µM (Haspin): -1%
remaining activity at 0.011 µM (IRAK4): 48%
remaining activity at 0.011 µM (CLK2): 5%
IC50 (p110γ; 10 μM ATP, two hours, no regulatory subunit): 380 nM
selectivity against PI3Kγ (p110γ; relative to PI3Kα): > 30 fold
IC50 (p110δ): 160 nM
SMILES: CCN(/N=C/c1cnc2ccc(Br)cn12)S(=O)(=O)c1cc([N+](=O)[O-])c(NC(=O)C(F)(F)F)cc1C [J124]

Reference: publication PMC3004370, “PI3Kα Inhibitors That Inhibit Metastasis” (Oncotarget, 2010)
